Experimental data from patent US20230099567A1, “COMPOSITION FOR TREATMENT, PREVENTION, OR AMELIORATION OF LYMPHEDEMA” (RAPPELER CO., LTD., priority 2020, published 2023).
Like-named read-outs stand apart in the source and are kept apart here. Values belong to the molecule of their own block, whether it stands above or below them.

Assays:
[1] = system: LPS-induced TNFα production in mouse peritoneal macrophages; experiment: LPS-induced TNFα production in mouse peritoneal macrophages (ELISA); type: cell-based; settings: for IC50 / TNFα production inhibitory ability compared with butein (FIG. 1): mouse peritoneal macrophages; for IC50: 100 ng/ml LPS 24 h, measured twice, mean ± standard deviation, read-out: IC50, dose-dependent inhibition of TNFα production in macrophages; for IC50 value compared with positive control butein: TNFα production in macrophages; for TNFα production inhibitory ability compared with butein (FIG. 1): compound 20 μM, LPS-induced
Description: To isolate peritoneal macrophages, male Balb/c mice were intraperitoneally injected with 2 ml of 3.5% sterile thioglycolate (B D, Sparks, Md., USA) 4 days before being sacrificed. Mice were sacrificed by cervical dislocation, and peritoneal secretory cells were aseptically isolated through peritoneal washing with cold DMEM (HyClone, Logan, Utah, USA) containing 10% FBS (fetal bovine serum; HyClone) and 1% penicillin-streptomycin. After centrifugation, cells were resuspended and counted using a TC20 Cell Counter (Bio-Rad Laboratories, Hercules, Calif., USA). Peritoneal secretory cells were left in a 24-well plate overnight at 37° C., and non-adherent cells were removed. The cells were then stimulated with 100 ng/ml lipopolysaccharide (LPS) for 24 hours. The supernatant was collected during cytokine analysis, and the level of TNFα in the supernatant was measured using BD OptEIA mouse ELISA sets (BD Biosciences, San Diego, Calif., USA) according to the manufacturer's protocol. […] IC50 (μM) values were measured twice, respectively, and expressed as mean±standard deviation.

[2] = Physicochemical properties (pKa, logP, solubility)
Source text: Compound 1 is butein and the therapeutic effect on lymphedema thereof is disclosed in Korean Patent Publication No. 10-1533197 (published on Jul. 2, 2015).

[3] = Pharmacokinetic analysis in mice after I.V. and oral administration; type: in vivo, mouse; settings: for BA (bioavailability): (AUCpo/AUCiv)×100; for AUC(0-inf) / Cmax: mouse, plasma; for Cmax: read-out: Cmax (maximum plasma concentration)
Description: Compounds were administered to 5-week-old male CD-1 mice through 1 mg/kg tail vein administration (administration volume of 5 mL/kg), 20 mg/kg oral administration, and 100 mg/kg oral administration, respectively. Three mice were used for each independent experiment. Blood samples were taken in an amount of 20 μL to 30 μL via the saphenous vein at 5, 15, 30, 60, 120, 180, 360, and 1440 minutes.
In addition, pharmacokinetic parameters were calculated from non-compartmental analysis using Win Non-lin.
In Table 3, T1/2 denotes the terminal half-life, Cmax denotes the maximum plasma concentration, AUC-O denotes the area under the plasma concentration-time curve from time zero to infinity, and indicates exposure concentration of whole blood, and BA represents bioavailability expressed as (AUCpo/AUCiv)×100. […] Cmax and AUC∞ are mean±SD values obtained from three male ICR mice. Regarding blood exposure during systemic circulation of the compound, the compound was orally administered at an amount of 100 mg/kg, and then, AUC (area under the curve) was measured, and the obtained measurements were compared.

[4] = system: lymphedema induced in mice; experiment: Prophylactic effect on lymphedema formation, surgically induced murine lymphedema model (volume); type: in vivo, mouse; settings: 7th day after surgery, oral administration 7 days before surgery, then once every two days, vs control group
Description: All animal tests in the following examples were performed after obtaining approvals by the Institutional Animal Care and Use Committee (IACUC) of Sungkyunkwan University School of Medicine (Approval No.: […]-20150037). All methods were performed according to the approved guidelines. […] Briefly, major lymphatic sites including inguinal lymph nodes, popliteal lymph nodes, deep inguinal lymph nodes and femoral lymphatic vessels were removed, and the lower right leg of the mouse was limitedly cauterized under anesthesia.
Compounds 1, 7m, and 14a were each orally administered to mice for 7 days before surgical induction of lymphedema in mice.
On the other hand, in the control group, the compound 1 treatment group, the compound 7m treatment group, and the compound 14a treatment group, lymphedema was induced through surgery. After surgery, the compounds were administered once every two days.
The volume of lymphedema was measured on the 7th day after surgery, and the size of the lymphedema was recorded using a caliper ruler by a person who was blinded to the treatment status of the mice.

lymphedema tissue = experiment: Histological (H&E) analysis of lymphedema tissue of the right hind leg; type: in vivo; settings: 7th day after surgery, right hind leg of mouse
Source text: (§1) Tissue samples were collected on the 7th day after surgery to induce lymphedema at a location 15 mm-25 mm from the right leg of the mouse. The harvested tissue samples were fixed with 10% formalin solution, and the specimens were cut to a thickness of 5 μm. Sections were deparaffinized in 100% xylene, rehydrated with a series of 100% ethanol, 95% ethanol, 90% ethanol, 80% ethanol, and 70% ethanol, and washed with water. Sections were reacted with hematoxylin solution at room temperature. After washing in PBS, sections were stained with eosin at room temperature. Images were acquired by a Pannoramic viewer microscope (3[…] Ltd., Hungary). Prepared slides were incubated using anti-mouse PPARγ (Santa Cruz Biotechnology, USA) and Alexa Fluor 488 and DAPI (Life Technologies, USA). Samples were analyzed using a Nikon ECLIPSE 80i microscope (Nikon Instruments Inc., Japan).
In FIG. 3A, the scale bar of the upper panel is 500 μm, and the scale bar of the lower panel is 100 μm.
In FIG. 4A, the scale bar of the upper panel is 200 μm, and the scale bar of the lower panel is 100 μm.

TNFα = experiment: mRNA expression of TNFα in lymphedema tissue; type: in vivo; settings: 7th day after surgery, mouse
Source text: As a result, it was confirmed that the expression level of TNFα mRNA was decreased in the compound 1 treatment group and the compound 14a treatment group (with respect to the control group, *: P<0.05; with respect to compound 1, #: P<0.05).

PPARγ = experiment: Immunofluorescence staining of PPARγ in epidermal layer of lymphedema tissue; type: in vivo; settings: mouse
Source text: as §1
In addition, peroxisome […] (PPARγ) is a major regulator of lipogenesis, and as shown in FIG. 4B showing the results of immunofluorescence staining, the distribution of PPARγ in the epidermal layer of lymphedema tissue after treatment with compound 1 and compound 14a was suppressed.

[5] = system: PPARγ and a target protein Fabp4; experiment: Expression of PPARγ and Fabp4 in lymphedema tissue (western blot, mRNA); type: in vivo; settings: mouse
[6] = Mus musculus, Peritoneal macrophage, 24 h
[7] = water solubility, read-out: Solubility
[8] = po, P.O, 20 mg/Kg, male CD-1 mice

Compound: COc1ccc(/C=C/C(=O)c2ccc(O)cc2O)cc1O [7b, (E)-1-(2,4-dihydroxyphenyl)-3-(3-hydroxy-4-methoxyphenyl)prop-2-en-1-one]
- melting point: 206.4 °C

Compound: O=C(/C=C/c1ccc(F)c(O)c1)c1ccc(O)cc1O [7d, (E)-1-(2,4-dihydroxyphenyl)-3-(4-fluoro-3-hydroxyphenyl)prop-2-en-1-one]
- melting point: 252.4 °C

Compound: O=C(/C=C/c1ccc(O)c(O)c1)c1ccc(O)cc1F [7g, (E)-3-(3,4-dihydroxyphenyl)-1-(2-fluoro-4-hydroxyphenyl)prop-2-en-1-one]
- melting point: 207.8 °C

Compound: CC(C)Oc1cc(O)ccc1C(=O)/C=C/c1ccc(O)c(O)c1 [7j, (E)-3-(3,4-dihydroxyphenyl)-1-(4-hydroxy-2-isopropoxyphenyl)prop-2-en-1-one]
- melting point: 80.4 °C

Compound: COc1ccc(C(=O)/C=C/c2ccc(O)c(O)c2)c(OC)c1 [7k, (E)-3-(3,4-dihydroxyphenyl)-1-(2,4-dimethoxyphenyl)prop-2-en-1-one]
- melting point: 162.9 °C

Compound: CC(=O)Oc1ccc(C(=O)/C=C/c2ccc(OC(C)=O)c(OC(C)=O)c2)c(OC(C)=O)c1 [compound 8a, (E)-4-(3-(2,4-diacetoxyphenyl)-3-oxoprop-1-en-1-yl)-1,2-phenylene diacetate]
- IC50 [1, 6]: 12.8 ± 1.24 µM
- IC50 value compared with positive control butein [1]: significantly superior IC50 values compared to butein
- TNFα production inhibitory ability compared with butein (FIG. 1) [1]: significantly better TNFα production inhibitory ability than the positive control butein treatment group
- melting point: 131.3 °C

Second part, led by results:

- IC50 [1, 6]: 43 µM
- IC50 [1]: 43.3 ± 1.72 µM
- logP (partition coefficient) [2]: 0.42
- solubility [2, 7]: 21 µg/mL
- solubility ([2]; water, read-out: water solubility): 79 µM
- Cmax (maximum plasma concentration) ([3]; I.V, 1 mg/Kg, male CD-1 mice): 41 ng/mL
- Tmax ([3]; I.V, 1 mg/Kg, male CD-1 mice): 6 min
- Tmax ([3]; P.O, 20 mg/Kg, male CD-1 mice): 18 min
- BA (bioavailability) ([3]; P.O, 20 mg/Kg, male CD-1 mice): 15%
- Tmax ([3]; P.O, 100 mg/Kg, male CD-1 mice): 18 min
- BA (bioavailability) ([3]; P.O, 100 mg/Kg, male CD-1 mice): 37%
- terminal half-life ([3]; mice): too short terminal half-life
- AUC(0-inf) ([3]; iv, I.V, 1 mg/Kg, male CD-1 mice): 6.7 ng·h/mL
- AUC(0-inf) [3, 8]: 21 ng·h/mL
- Cmax [3, 8]: 43 ng/mL
- Cmax ([3]; po, P.O, 100 mg/Kg, male CD-1 mice): 601 ng/mL
Compound: O=C(/C=C/c1ccc(O)c(O)c1)c1ccc(O)cc1O [compound 1, (E)-1-(2,4-dihydroxyphenyl)-3-(3,4-dihydroxyphenyl)prop-2-en-1-one, reference compound]
- inhibition at 20 µM ([1]; Mus musculus, Peritoneal macrophage, treated in vitro at 20 μM, read-out: efficacy (inhibition)): 10%
- volume of lymphedema reduced by [4]: 52%
- development of adipose tissue in the epidermal layer (H&E, FIG. 4A) (lymphedema tissue): inhibiting the development of adipose tissue in the epidermal layer
- expression level of TNFα mRNA in lymphedema tissue (FIG. 3B) (TNFα): decreased
- distribution of PPARγ in the epidermal layer of lymphedema tissue (FIG. 4B) (PPARγ): suppressed
- levels of PPARγ and Fabp4 mRNA (FIG. 4D) ([5]; lymphedema tissue): superior efficacy compared to the control group
- expression of PPARγ and Fabp4 in lymphedema tissue (western blot, FIG. 4C) [5]: reduced the expression of PPARγ

- IC50 [1, 6]: 48.4 ± 2.35 µM
- melting point: 208.2 °C
Compound: Cc1cc(O)ccc1C(=O)/C=C/c1ccc(O)c(O)c1 [compound 7h, (E)-3-(3,4-dihydroxyphenyl)-1-(4-hydroxy-2-methylphenyl)prop-2-en-1-one]

- IC50 [1, 6]: 18.6 ± 1.5 µM
- melting point: 190.9 °C
Compound: Cc1ccc(C(=O)/C=C/c2ccc(O)c(O)c2)cc1 [compound 7l, (E)-3-(3,4-dihydroxyphenyl)-1-(p-tolyl)prop-2-en-1-one]
- IC50 value compared with positive control butein [1]: significantly superior IC50 values compared to butein

- IC50 [1, 6]: 17.3 ± 2.11 µM
- logP (partition coefficient) [2]: 3.77
- solubility [2, 7]: 28 µg/mL
Compound: O=C(/C=C/c1ccc(O)c(O)c1)c1ccc(Cl)cc1 [compound 7m, (E)-1-(4-chlorophenyl)-3-(3,4-dihydroxyphenyl)prop-2-en-1-one]
- IC50 value compared with positive control butein [1]: significantly superior IC50 values compared to butein
- volume of lymphedema reduced by [4]: 53%

- melting point: 36.7 °C
Compound: O=C(Oc1ccc(C(=O)/C=C/c2ccc(OC(=O)c3ccccc3)c(OC(=O)c3ccccc3)c2)c(OC(=O)c2ccccc2)c1)c1ccccc1 [compound 8b, (E)-4-(3-(2,4-bis(benzoyloxy)phenyl)-3-oxoprop-1-en-1-yl)-1,2-phenylene dibenzoate]
- TNFα production inhibitory ability compared with butein (FIG. 1) [1]: significantly better TNFα production inhibitory ability than the positive control butein treatment group

- IC50 [1, 6]: 18.9 ± 1.15 µM
- melting point: 185.7 °C
Compound: Cc1ccc(C(=O)Oc2cc(O)ccc2C(=O)/C=C/c2ccc(O)c(O)c2)cc1 [compound 14b, (E)-2-(3-(3,4-dihydroxyphenyl)acryloyl)-5-hydroxyphenyl 4-methylbenzoate]

- IC50 [1, 6]: 20.8 ± 1.62 µM
- melting point: 161.1 °C
Compound: COc1ccc(C(=O)Oc2cc(O)ccc2C(=O)/C=C/c2ccc(O)c(O)c2)cc1 [compound 14c, (E)-2-(3-(3,4-dihydroxyphenyl)acryloyl)-5-hydroxyphenyl 4-methoxybenzoate]

- melting point: 102.8 °C
Compound: O=C(Oc1cc(O)ccc1C(=O)/C=C/c1ccc(O)c(O)c1)c1ccc(Cl)cc1 [compound 14d]
